# Columns and labels:
# Human LDL = assay: Antioxidative activity: inhibition of MDA formation from LDL incubated with cupric sulfate; type: biochemical; conditions: compound 10^-5 M; cupric sulfate 5×10^-6 M; 5 hrs; compared with control
# Procedure: Human LDL was incubated in the presence of cupric sulfate (5×10^-6 M) and in the presence or absence of a compound (10^-5 M) for 5 hrs. After the incubation, the peroxidation of low-density lipoproteins (LDL) is evaluated by the formation of malondialdehyde (MDA), which is a sort of lipid peroxides according to the method of Simon J. T. Mao et al. (J. Med. Chem., Vol. 34, pages 298-302, 1991). Activity of the compound is shown by percent inhibition of the MDA formation as compared with control.
# [1] = Cholesterol-lowering activity in hypercholesteremic rats; type: in vivo, Sprague-Dawley male rats; conditions: 30 mg/kg oral, in 0.5% methylcellulose; plasma cholesterol prior to and 5 hrs after administration
# Procedure: Sprague-Dawley male rats were given a powdery feed containing 1% cholesterol and 0.5% cholic acid in an amount of 15 g per day per animal for 3 days to produce hypercholesteremic rats. Four days later, a compound suspended in 0.5% methylcellulose was administered orally at a dose of 30 mg/kg. Blood was drawn prior to and 5 hrs after the administration of the compound, for which the plasma cholesterol level was measured using a commercially available assay kit (Cholesterol E Test Wako, Wako Junyaku K.K.).
# [2] = tested on: ACAT (liver microsome fractions of male rabbits); assay: ACAT inhibitory activity: formation of labelled cholesteryl esters from [1-14C]oleoyl-CoA and endogenous cholesterol; type: biochemical, rabbit; conditions: compound added at 10^-7 M
# Procedure: The enzyme preparation, ACAT was prepared from liver microsme fractions of male rabbits according to the method of E. E. Largis et al. (Journal of Lipid Research, Vol. 30, pages 681-690, 1989). The activity was calculated by assaying the amount of the labelled cholesteryl esters formed from [1-^14 C]oleoyl-CoA and endogenous cholesterol according to the method of Kazuichi NATORI et al. (Japan J. Pharmacol., Vol. 42, pages 517-523, 1986).
# The result is shown in Table 1, in which percent inhibition of the formation of the labelled cholesteryl esters with a compound added at 10^-7 M is indicated as index for the ACAT inhibitory activity.
structure (smiles),measurement,setting,value
"CC(C)(C)c1cc(CCc2ccccc2NC(=O)NC2CCN(Cc3ccc(F)cc3)CC2)cc(C(C)(C)C)c1O [Example 83, N-[2-(3,5-di-tert-butyl-4-hydroxyphenethyl)phenyl]-N'-[1-(4-fluorobenzyl)-4-piperidyl]urea]",Antioxidant Activity (percent inhibition of the MDA formation),Human LDL,96%
same,Percent Reduction of Cholesterol,[1],44.6%
same,ACAT Inhibition,[2],96%
"CN(C(=O)Nc1ccccc1CCc1cc(C(C)(C)C)c(O)c(C(C)(C)C)c1)C1CCN(Cc2ccccc2)CC1 [Example 92, N-[2-(3,5-di-tert-butyl-4-hydroxyphenethyl)phenyl]-N'-(1-benzyl-4-piperidyl)-N'-methylurea]",Antioxidant Activity (percent inhibition of the MDA formation),Human LDL,96%
same,Percent Reduction of Cholesterol,[1],79.9%
same,ACAT Inhibition,[2],99%
"CC(C)(C)c1cc(CCc2cc(F)cc(F)c2NC(=O)NC2CCN(Cc3ccccc3)CC2)cc(C(C)(C)C)c1O [Example 108, N-[2-(3,5-di-tert-butyl-4-hydroxyphenethyl)-4,6-difluorophenyl]-N'-(1-benzyl-4-piperidyl)urea]",Antioxidant Activity (percent inhibition of the MDA formation),Human LDL,93%
same,Percent Reduction of Cholesterol,[1],71.8%
same,ACAT Inhibition,[2],97%
"CCCCCCCN(C)C(=O)Nc1ccccc1/C=C/c1cc(C(C)(C)C)c(O)c(C(C)(C)C)c1 [Example 105, N-[2-(3,5-di-tert-butyl-4-hydroxystyryl)phenyl]-N'-methyl-N'-heptylurea]",Percent Reduction of Cholesterol,[1],45.9%
"CC(C)(C)c1cc(CCc2ccccc2NC(=O)NC2CCN(Cc3ccccc3)CC2)cc(C(C)(C)C)c1O [Example 35, N-[2-(3,5-di-tert-butyl-4-hydroxyphenethyl)phenyl]-N'-(1-benzyl-4-piperidyl)urea]",Antioxidant Activity (percent inhibition of the MDA formation),Human LDL,94%
same,Percent Reduction of Cholesterol,[1],48.4%
same,ACAT Inhibition,[2],82%
"CC(C)(C)CN1CCC(NC(=O)Nc2ccccc2CCc2cc(C(C)(C)C)c(O)c(C(C)(C)C)c2)CC1 [Example 97, N-[2-(3,5-di-tert-butyl-4-hydroxyphenethyl)phenyl]-N'-[1-(2,2-dimethylpropyl)-4-piperidyl]urea]",Antioxidant Activity (percent inhibition of the MDA formation),Human LDL,96%
same,ACAT Inhibition,[2],89%
"CC(C)(C)CC(C)(C)NC(=O)Nc1ccccc1CCc1cc(C(C)(C)C)c(O)c(C(C)(C)C)c1 [Example 14, N-[2-(3,5-di-tert-butyl-4-hydroxyphenethyl)phenyl]-N'-(2,4,4-trimethyl-2-pentyl)urea]",Antioxidant Activity (percent inhibition of the MDA formation),Human LDL,98%
same,ACAT Inhibition,[2],93%
"CC(C)(C)c1cc(CCc2ccccc2NC(=O)N2CCN(Cc3ccccc3)CC2)cc(C(C)(C)C)c1O [Example 114, 1-Benzyl-4-[N-[2-(3,5-di-tert-butyl-4-hydroxyphenethyl)phenyl]carbamoyl]piperazine]",Antioxidant Activity (percent inhibition of the MDA formation),Human LDL,98%
same,ACAT Inhibition,[2],82%
CC(C)(C)c1cc(CCc2ccccc2NC(=O)NC2CCC(OCc3ccccc3)CC2)cc(C(C)(C)C)c1O (centres unmarked) [Example 57],Antioxidant Activity (percent inhibition of the MDA formation),Human LDL,95%
same,ACAT Inhibition,[2],89%
"CN(C)c1ccc(CCNC(=O)Nc2ccccc2CCc2cc(C(C)(C)C)c(O)c(C(C)(C)C)c2)cc1 [Example 75, N-[2-(3,5-di-tert-butyl-4-hydroxyphenethyl)phenyl]-N'-(4-dimethylaminophenethyl)urea]",Antioxidant Activity (percent inhibition of the MDA formation),Human LDL,95%
same,ACAT Inhibition,[2],88%
"CC(C)(C)c1cc(CCc2ccccc2NC(=O)N2CCCC3CCCCC32)cc(C(C)(C)C)c1O (centres unmarked) [Example 130, 1-[N-[2-(3,5-di-tert-butyl-4-hydroxyphenethyl)phenyl]carbamoyl]decahydroquinoline]",Antioxidant Activity (percent inhibition of the MDA formation),Human LDL,95%
same,Percent Reduction of Cholesterol,[1],71.5%
same,ACAT Inhibition,[2],99%
"CC(C)(C)c1cc(CCc2ccccc2NC(=O)NC2CCN(Cc3ccc(C(F)(F)F)cc3C(F)(F)F)CC2)cc(C(C)(C)C)c1O [Example 85, N-[2-(3,5-di-tert-butyl-4-hydroxyphenethyl)phenyl]-N'-[1[-2,4-bis(trifluoromethyl)benzyl]-4-piperidyl]urea]",Antioxidant Activity (percent inhibition of the MDA formation),Human LDL,94%
same,ACAT Inhibition,[2],97%
"CCOC(=O)[C@@H](NC(=O)Nc1ccccc1CCc1cc(C(C)(C)C)c(O)c(C(C)(C)C)c1)c1ccccc1 [Example 69, (S)-N-[2-(3,5-di-tert-butyl-4-hydroxyphenethyl)phenyl]-N'-(α-ethoxycarbonyl)benzylurea]",Antioxidant Activity (percent inhibition of the MDA formation),Human LDL,95%
same,ACAT Inhibition,[2],96%
"CC(C)(C)c1cc(CCc2ccccc2NC(=O)N2CCC(Cc3ccccc3)CC2)cc(C(C)(C)C)c1O [Example 115, 4-Benzyl-1-[N-[2-(3,5-di-tert-butyl-4-hydroxyphenethyl)phenyl]carbamoyl]piperidine]",Antioxidant Activity (percent inhibition of the MDA formation),Human LDL,98%
same,ACAT Inhibition,[2],87%

# Reference: patent US5621010A, “Urea derivatives and their use as ACAT inhibitors” (Nisshin Flour Milling Co., Ltd., priority 1993, dated 1997)
